Results as given in patent publication US10517889B2, “Modulators of SMAD7 expression” (Ionis Pharmaceuticals, Inc., priority 2017, dated 2019).
Strand notation (5' to 3'): a small letter for the sugar, then the base; units joined by * are phosphorothioate-linked, units joined directly phosphodiester-linked; [ ] holds rarer units or linkages, { } end groups; capitals alone tell only the bases. k = constrained ethyl (cEt); [5mC] = 5-methylcytosine; d = 2'-deoxy (DNA)

Tested on: human SMAD7 mRNA
Experiment: Antisense inhibition of human SMAD7 mRNA expression in Hep3B cells by 3-10-3 cEt gapmers, 10,000 nM, electroporation (Example 2)
Type: cell-based
Conditions: Hep3B cells, electroporation with 10,000 nM antisense oligonucleotide, approximately 24 hours, primer probe set RTS5062, relative to untreated control cells
Procedure, shortened: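 SMAD7 mRNA was measured by real-time PCR (RTS5062) with RiboGreen total-RNA normalization, about 24 h after 10,000 nM gapmer was delivered by electroporation into Hep3B cells at 20,000 per well. Gapmers were 16-mer 3-10-3 cEt, fully phosphorothioate; values are % inhibition versus untreated controls.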

Substance	% Inhibition [%]	% inhibition of SMAD7 mRNA expression [%]
799100 (antisense kG*kA*kA*dA*dA*dA*d[5mC]*d[5mC]*dT*dG*dA*dT*dG*kT*k[5mC]*kA) [compound 799100]	38	–
799101 (antisense kG*kG*kA*dA*dA*dA*dA*d[5mC]*d[5mC]*dT*dG*dA*dT*kG*kT*k[5mC]) [compound 799101]	55	–
799102 (antisense k[5mC]*kG*kG*dG*dA*dA*dA*dA*dA*d[5mC]*d[5mC]*dT*dG*kA*kT*kG) [compound 799102]	34	–
799103 (antisense k[5mC]*k[5mC]*kG*dG*dG*dA*dA*dA*dA*dA*d[5mC]*d[5mC]*dT*kG*kA*kT) [compound 799103]	–	12
799104 (antisense kA*kG*kT*d[5mC]*d[5mC]*dG*dG*dG*dA*dA*dA*dA*dA*k[5mC]*k[5mC]*kT) [compound 799104]	–	40
799105 (antisense k[5mC]*kT*kA*dA*dG*dT*d[5mC]*d[5mC]*dG*dG*dG*dA*dA*kA*kA*kA) [compound 799105]	–	12
799106 (antisense kT*kT*kT*dT*d[5mC]*dT*dA*dA*dG*dT*d[5mC]*d[5mC]*dG*kG*kG*kA) [compound 799106]	–	34
799107 (antisense k[5mC]*kT*kG*dG*dT*dT*dT*dT*d[5mC]*dT*dA*dA*dG*kT*k[5mC]*k[5mC]) [compound 799107]	–	51
799108 (antisense k[5mC]*kT*kG*dA*dG*d[5mC]*dT*dG*dG*dT*dT*dT*dT*k[5mC]*kT*kA) [compound 799108]	–	64
799109 (antisense k[5mC]*kA*kG*dT*dG*d[5mC]*dT*dG*dA*dG*d[5mC]*dT*dG*kG*kT*kT) [compound 799109]	–	48
799110 (antisense kA*kG*kG*d[5mC]*dA*dG*dT*dG*d[5mC]*dT*dG*dA*dG*k[5mC]*kT*kG) [compound 799110]	–	33
799111 (antisense kA*kG*k[5mC]*dA*dG*dG*d[5mC]*dA*dG*dT*dG*d[5mC]*dT*kG*kA*kG) [compound 799111]	–	50
799112 (antisense kG*kG*kG*dA*dG*d[5mC]*dA*dG*dG*d[5mC]*dA*dG*dT*kG*k[5mC]*kT) [compound 799112]	–	58
799113 (antisense kG*kA*kT*dG*dG*dG*dA*dG*d[5mC]*dA*dG*dG*d[5mC]*kA*kG*kT) [compound 799113]	57	–
799114 (antisense k[5mC]*kA*kG*dG*dA*dT*dG*dG*dG*dA*dG*d[5mC]*dA*kG*kG*k[5mC]) [compound 799114]	35	–
799115 (antisense kA*k[5mC]*kA*d[5mC]*dA*dG*dG*dA*dT*dG*dG*dG*dA*kG*k[5mC]*kA) [compound 799115]	40	–
799116 (antisense kT*kA*kA*d[5mC]*dA*d[5mC]*dA*d[5mC]*dA*dG*dG*dA*dT*kG*kG*kG) [compound 799116]	34	–
799117 (antisense kG*k[5mC]*kT*dT*dA*dA*d[5mC]*dA*d[5mC]*dA*d[5mC]*dA*dG*kG*kA*kT) [compound 799117]	46	–
799119 (antisense kA*kG*k[5mC]*dA*dG*dA*dG*d[5mC]*dT*dT*dA*dA*d[5mC]*kA*k[5mC]*kA) [compound 799119]	50	–
799120 (antisense kA*kA*kT*dA*dG*d[5mC]*dA*dG*dA*dG*d[5mC]*dT*dT*kA*kA*k[5mC]) [compound 799120]	45	–

Substance	% Inhibition [%]	% inhibition of SMAD7 mRNA expression [%]
799121 (antisense k[5mC]*k[5mC]*kT*dA*dA*dT*dA*dG*d[5mC]*dA*dG*dA*dG*k[5mC]*kT*kT) [compound 799121]	25	–
799122 (antisense k[5mC]*kT*kG*dG*d[5mC]*d[5mC]*dT*dA*dA*dT*dA*dG*d[5mC]*kA*kG*kA) [compound 799122]	29	–
799123 (antisense k[5mC]*kT*kT*dG*d[5mC]*dT*dG*dG*d[5mC]*d[5mC]*dT*dA*dA*kT*kA*kG) [compound 799123]	–	23
799124 (antisense k[5mC]*k[5mC]*kG*d[5mC]*dT*dT*dG*d[5mC]*dT*dG*dG*d[5mC]*d[5mC]*kT*kA*kA) [compound 799124]	–	17
799125 (antisense kT*k[5mC]*k[5mC]*d[5mC]*d[5mC]*dG*d[5mC]*dT*dT*dG*d[5mC]*dT*dG*kG*k[5mC]*k[5mC]) [compound 799125]	–	62
799126 (antisense kG*kA*k[5mC]*dA*dT*d[5mC]*d[5mC]*d[5mC]*d[5mC]*dG*d[5mC]*dT*dT*kG*k[5mC]*kT) [compound 799126]	–	4
799127 (antisense kA*kG*kG*dG*dA*d[5mC]*dA*dT*d[5mC]*d[5mC]*d[5mC]*d[5mC]*dG*k[5mC]*kT*kT) [compound 799127]	–	67
799128 (antisense k[5mC]*k[5mC]*k[5mC]*dA*dG*dG*dG*dA*d[5mC]*dA*dT*d[5mC]*d[5mC]*k[5mC]*k[5mC]*kG) [compound 799128]	–	63
799129 (antisense k[5mC]*k[5mC]*kT*d[5mC]*d[5mC]*d[5mC]*dA*dG*dG*dG*dA*d[5mC]*dA*kT*k[5mC]*k[5mC]) [compound 799129]	–	37
799130 (antisense kG*kT*k[5mC]*d[5mC]*d[5mC]*dT*d[5mC]*d[5mC]*d[5mC]*dA*dG*dG*dG*kA*k[5mC]*kA) [compound 799130]	–	1
799131 (antisense k[5mC]*kA*kT*dG*dT*d[5mC]*d[5mC]*d[5mC]*dT*d[5mC]*d[5mC]*d[5mC]*dA*kG*kG*kG) [compound 799131]	–	6
799132 (antisense kA*kA*kG*d[5mC]*dA*dT*dG*dT*d[5mC]*d[5mC]*d[5mC]*dT*d[5mC]*k[5mC]*k[5mC]*kA) [compound 799132]	–	38
799133 (antisense kG*k[5mC]*kT*dA*dA*dG*d[5mC]*dA*dT*dG*dT*d[5mC]*d[5mC]*k[5mC]*kT*k[5mC]) [compound 799133]	17	–
799134 (antisense kA*k[5mC]*kT*dG*d[5mC]*dT*dA*dA*dG*d[5mC]*dA*dT*dG*kT*k[5mC]*k[5mC]) [compound 799134]	17	–
799135 (antisense kG*kG*kG*dA*d[5mC]*dT*dG*d[5mC]*dT*dA*dA*dG*d[5mC]*kA*kT*kG) [compound 799135]	38	–
799136 (antisense k[5mC]*kT*kT*d[5mC]*dT*dT*dG*dG*dA*dG*dG*dG*dA*kA*kG*kG) [compound 799136]	3	–
799137 (antisense kA*kA*kT*d[5mC]*d[5mC]*dT*dT*d[5mC]*dT*dT*dG*dG*dA*kG*kG*kG) [compound 799137]	49	–
799138 (antisense k[5mC]*k[5mC]*kA*dA*dA*dT*d[5mC]*d[5mC]*dT*dT*d[5mC]*dT*dT*kG*kG*kA) [compound 799138]	7	–
799139 (antisense k[5mC]*kG*kG*dA*d[5mC]*d[5mC]*dA*dA*dA*dT*d[5mC]*d[5mC]*dT*kT*k[5mC]*kT) [compound 799139]	56	–
